In experiment [1] the test system is repetitive cold stress rat models. The experiment can be described thus: Test for inhibition of pain threshold decrease by repetitive cold stress (continuous administration), Randall-Selitto method. Type of experiment: in vivo. The following applies: for inhibition in vivo at 3 mg/kg: Rattus norvegicus, 192 h, day 8 after applying the repetitive cold stress, orally 3 mg/kg once a day, with stress, average of 5 or 6 cases, read-out: Rate of inhibition of pain threshold decrease (%); for inhibition in vivo at 3 mg/kg / Rate of inhibition of pain threshold decrease (%): po; for Rate of inhibition of pain threshold decrease (%): rat, in vivo.

The test system is the same in experiment [2]. In words: Test for inhibition of pain threshold decrease by repetitive cold stress (single administration), Randall-Selitto method. Type of experiment: in vivo. The following applies: 24 hours after single administration on day 8 of repetitive cold stress; orally 3 mg/kg; with stress; average of 6 cases.

Where a name gives a salt, the structure may show the parent alone.

Turning to `O=C(O)Cc1ccccc1Nc1c(Cl)cccc1Cl` [Compound L, Diclofenac, reference compound], in experiment [1] (result in words, continuous administration once a day, day 8 of repetitive cold stress), the “activity on inhibiting a decrease in pain threshold” value was “not observed at all”.
Consider `COc1ccc(OCCCN(CCOC(C)=O)C(C)C)c(C2Sc3cc(Cl)ccc3N2C(C)=O)c1` (single isomer, unassigned; (+)) [Compound H, (+)-2-[2-(3-(N-(2-acetoxyethyl)-N-isopropylamino)propoxy)-5-methoxyphenyl]-3-acetyl-6-chlorobenzothiazoline hydrochloride], for which the inhibition in vivo at 3 mg/kg in experiment [1] is 34.5%.
For the compound `COc1ccc(OC(C)CCN(CCO)C(C)C)c(C2Sc3cc(Cl)ccc3N2C(C)=O)c1` (stereo not drawn) [Compound G, 3-acetyl-6-chloro-2-[2-(3-(N-(2-hydroxyethyl)-N-isopropylamino)-1-methylpropoxy)-5-methoxyphenyl]benzothiazoline hydrochloride], in experiment [1], the inhibition in vivo at 3 mg/kg was determined as 32.8%.
Consider `COc1ccc(OCCCN(CCO)C(C)C)c(C2Sc3cc(Cl)ccc3N2C(C)=O)c1.Cl` (single isomer, unassigned; (+)) [Compound A, (+)-3-acetyl-6-chloro-2-[2-(3-(N-(2-hydroxyethyl)-N-isopropylamino)propoxy)-5-methoxyphenyl]benzothiazoline hydrochloride], for which, in experiment [2], the “Pain threshold (mmHg)” value was found to be 21.7 mmHg and the “Rate of inhibition of pain threshold decrease (%)” value was found to be 0%. Besides, the inhibition in vivo at 3 mg/kg in experiment [1] was determined as 52.1%.
Take `CC(=O)OC(C(=O)O)C(OC(C)=O)C(=O)O.COCCN(CCCOc1ccc(OC)cc1C1Sc2cc(Cl)ccc2N1C(C)=O)C(C)C` (single isomer, unassigned; (+)) [Compound B, (+)-3-acetyl-6-chloro-2-[2-(3-(N-(2-methoxyethyl)-N-isopropylamino)propoxy)-5-methoxyphenyl]benzothiazolinediacetyl tartrate]: in experiment [2], the “Pain threshold (mmHg)” value is 21.5 mmHg and the “Rate of inhibition of pain threshold decrease (%)” value is recorded as −1.9%. The “Rate of inhibition of pain threshold decrease (%)” value in experiment [1] (3 mg/kg) came out at 53.9%.
For the compound `COCOCCN(CCCOc1ccc(OC)cc1C1Sc2cc(Cl)ccc2N1C(C)=O)C(C)C.Cl` (single isomer, unassigned; (+)) [Compound I, (+)-3-acetyl-6-chloro-2-[2-(3-(N-isopropyl-(N-methoxymethyloxyethyl)amino)propoxy)-5-methoxyphenyl]benzothiazoline hydrochloride], the “Rate of inhibition of pain threshold decrease (%)” value in experiment [1] (3 mg/kg) came out at 43.1%.
For the compound `CC(=O)OC(C(=O)O)C(OC(C)=O)C(=O)O.CCOCCN(CCCOc1ccc(OC)cc1C1Sc2cc(Cl)ccc2N1C(C)=O)C(C)C` (single isomer, unassigned; (+)) [Compound C, (+)-3-acetyl-6-chloro-2-[2-(3-(N-(2-ethoxyethyl)-N-isopropylamino)propoxy)-5-methoxyphenyl]benzothiazolinediacetyl tartrate], in experiment [2], the “Pain threshold (mmHg)” value was 21.7 mmHg and the “Rate of inhibition of pain threshold decrease (%)” value came to 0%. Besides, the “Rate of inhibition of pain threshold decrease (%)” value in experiment [1] (3 mg/kg) came out at 73.4%.
Take `CCOCCN(CCCOc1ccc(OC)cc1C1Sc2cc(Cl)ccc2N1C(C)=O)C(C)C.Cl` (stereo not drawn) [Compound K, 3-acetyl-6-chloro-2-[2-(3-(N-(2-ethoxyethyl)-N-isopropylamino)propoxy)-5-methoxyphenyl]benzothiazolinediacetyl hydrochloride]: the “Rate of inhibition of pain threshold decrease (%)” value in experiment [1] (10 mg/kg) is on record as 62.7%.
For `COc1ccc(OCCCCl)c(C2Sc3cc(Cl)ccc3N2C(C)=O)c1` (single isomer, unassigned; (+)) [Compound F, (+)-3-acetyl-6-chloro-2-[2-(3-chloropropoxy)-5-methoxyphenyl]benzothiazoline hydrochloride], the inhibition in vivo at 3 mg/kg in experiment [1] was determined as 43.1%.

The values are drawn from patent US7642274B2, “Inhibitor of pain threshold decrease” (Santen Pharmaceutical Co., Ltd., priority 2003, dated 2010).
